Experimental data from US7128912B2, “Fibronectin binding protein compositions and methods of use” (The Texas A&M University System, priority 1997, dated 2006).

Test system: S. aureus
Assay: not given
Details: McGavin et al., 1991; cited from earlier work

Molecule | inhibition of binding of Fn to S. aureus / Fn-binding function
QFGGHNSVDFEEDT [D320-33] | could not inhibit binding of Fn to S. aureus

Test system: S. aureus strain Cowan binding to immobilized fibronectin
Assay: Inhibition of biotinylated S. aureus binding to immobilized fibronectin by synthetic peptides (ELISA)
Format: cell-based, Staphylococcus aureus
Details: 250 μg peptide (FIG. 3B)
Procedure: FIG. 2A, FIG. 2B and FIG. 2C. Inhibition of S. aureus binding to immobilized fibronectin by wild-type and mutant D3 peptides 1 through 21 (Table 3). NP indicates the amount of adherent bacteria in the absence of inhibitor. FIG. 2A. Peptides tested at 5 μg/well. FIG. 2B. Peptides tested at 50 μg/well. FIG. 2C. Peptides tested at 250 μg/well.
FIG. 3A and FIG. 3B. FIG. 3A. Inhibition of S. aureus binding to immobilized fibronectin by wild-type peptides D1 and D2 and mutant derivatives. NP indicates the amount of adherent bacteria in the absence of inhibitor. All peptides were tested at 10 μg/well. FIG. 3B. Inhibition of S. aureus binding to immobilized fibronectin by wild-type peptides D1. D2 and DU and mutant derivatives. NP indicates the amount of adherent bacteria in the absence of inhibitor. All peptides were tested at 250 μg/well.
S. aureus strain Cowan was cultured under constant rotation for 15 h at 37° C. in brain heart infusion (BHI; Difco) broth. Bacteria were harvested by centrifugation, resuspended in a bicarbonate buffer (50 mM NaHCO3, pH 8.5) to a final density of 10^10 cells/ml determined by comparing the absorbance at 600 nm of the sample with a previously prepared standard curve relating A600 to cells counted in a Petroff Hausser chamber. Bacterial cells were labeled with biotin by the addition of 100 μl of 1% NHS-biotin/ml of bacterial suspension (Pierce, Rockford, Ill.) in N,N-dimethylformamide. The staphylococcal cells were incubated with the NHS-biotin for 2 h at room temperature with constant rotation. The biotinylation reaction was stopped by removing the supernatant after centrifugation of the bacterial cells. The bacteria were then washed three times in PBS to remove unincorporated biotin. The bacterial cell suspensions were then adjusted to 1×10^10 cells/ml and the cells were stored at 4° C. in PBS, pH 7.4. To prevent unbiotinylated bacteria from growing and to reduce background, sodium azide and 0.1% BSA were added.
A series of peptides, based on the D3 repeat of S. aureus FnBPA, were synthesized to contain a proline residue at each position throughout the entire sequence (i.e., proline scan; Table 3). The mutated peptides were initially tested for their ability to inhibit biotinylated S. aureus binding to immobilized fibronectin. Wells on a 96-well Immulon II plate were coated with […] of a 30 μg/ml solution of purified Fn, either for 2 hr at room temperature or overnight at 4° C. Wells were washed three times with 1× phosphate buffered saline (PBS)-0.05% Tween-80 and blocked for 1 hr with PBS containing 0.01% Tween-80 and 1% BSA. After 1 hr, wells were washed again with PBS containing 0.05% Tween-80. Synthetic peptides were diluted to 5 mg/ml concentration in 1×PBS and tested at a concentration of 5 (FIG. 2A), 50 (FIG. 2B), or 250 μg/well (FIG. 2C). A volume of […] of the synthetic peptide was added to each well, after 15–25 min, followed by […] of biotinylated S. aureus cells. The plates were incubated for one hour at room temperature with slight agitation on a shaker. After 1 hr the wells were washed with PBS-0.05% Tween-80 and then incubated 30 min in 1:5000 dilution of secondary antibody streptavidin alkaline phosphatase. After 30 min, wells were washed again and developed with diethanolamine containing p-nitrophenyl phosphate (PNPP; 1 mg/ml) for 30 min at room temperature. The reaction was monitored at 405 nm.

Molecule | inhibitory activity compared to the wild type peptides
ADVVEYEEDTNPGPGQVTTESNLVEFDEEST [DU-14P] | inhibitory activity was detected
ADVVEYEEDTNPPGGQVTTESNLVEFDEEST [DU-13P] | virtually no inhibitory activity
QNKGNQSFEEDTEKDKPKYEHPGNIIDIDFDSVPHIHG [D2–22P] | virtually no inhibitory activity
QNSGNQSFEEDTEEDKPKYEQPGNIVDIDFDSVPQIHG [D1–22P] | inhibitory activity was detected

Same assay, conditions: FIG. 2C, peptides at 250 μg/well; proline scan of D3

Molecule | ability of mutant D3 peptides to inhibit S. aureus binding to Fn
KASYQFGGHNSVDFEEDTLPK [compound 2] | inhibitory activity of peptides increased
KPPYQFGGHNSVDFEEDTLPK [compound 3] | inhibitory activity of peptides increased
KPSPQFGGHNSVDFEEDTLPK [compound 4] | decreased ability to inhibit S. aureus binding to Fn
KPSYQFGGHNPVDFEEDTLPK [compound 11] | inhibitory activity of peptides increased
KPSYQFGGHNSVDFEEDPLPK [compound 18] | enhanced S. aureus Fn binding ability
KPSYQFGGHNSVDFEEDTLPP [compound 21] | enhanced S. aureus Fn binding ability
KPSYQFGGHNSVDFEEDTPPK [compound 19] | enhanced S. aureus Fn binding ability
KPSYQFGGHNSVDFEEPTLPK [compound 17] | enhanced S. aureus Fn binding ability
KPSYQFGGHNSVDFEPDTLPK [compound 16] | enhanced S. aureus Fn binding ability
KPSYQFGPHNSVDFEEDTLPK [compound 8] | inhibitory activity of peptides increased
KPSYQFPGHNSVDFEEDTLPK [compound 7] | decreased ability to inhibit S. aureus binding to Fn
PPSYQFGGHNSVDFEEDTLPK [compound 1] | inhibitory activity of peptides increased

Same assay, conditions: low concentration, 10 μg peptide (FIG. 3A)

Molecule | inhibitory activity compared with control samples (no peptide)
QNKGNQSFEEDTEKDKPKYEHPGNIIDIDFDSVPHIHG [D2–22P] | no inhibitory activity
QNSGNQSFEEDTEEDKPKYEQPGNIVDIDFDSVPQIHG [D1–22P] | no inhibitory activity

Test system: S. aureus
Assay: Inhibition of Fn binding to S. aureus (rFnBD-D, EDC-modified rFnBD-D, immune IgG)
Format: cell-based, Staphylococcus aureus
Details: not given
Description: Based on this observation, the inventors hypothesized that only Fn-binding MSCRAMMs that lack binding activity should lead to blocking antibodies. A recombinant version of the Fn-binding MSCRAMM rFnBD-D was chemically modified with EDC as previously described (McGavin et al., 1991) and tested for its ability to inhibit Fn binding to S. aureus. […] The chemically modified rFnBD-D was then used to immunize rabbits. […] With efficiencies of approximately 98%, chemical modification had the advantage of providing a quick and efficient method for probing entire classes of amino acids. However, an inherent disadvantage in this global approach is that the contribution to binding of individual amino acids was not detected.

Molecule | inhibition of Fn binding to S. aureus
modified rFnBD-D: rFnBD-D chemically modified with EDC (protein, left off: small tags and cut ends, rFnBD-D chemically modified with EDC) GQNSGNQSFEEDTEEDKPKYEQGGNIVDIDFDSVPQIHGQNKGNQSFEEDTEKDKPKYEHGGNIIDIDFDSVPHIHGFNKHTEIIEEDTNKDKPSYQFGGHNSVDFEEDTLPKVSGQNEGQQTIEEDTTPPIVP | no inhibitory activity
native rFnBD-D: recombinant version of the S. aureus Fn-binding MSCRAMM repeat domain (protein, left off: small tags and cut ends) GQNSGNQSFEEDTEEDKPKYEQGGNIVDIDFDSVPQIHGQNKGNQSFEEDTEKDKPKYEHGGNIIDIDFDSVPHIHGFNKHTEIIEEDTNKDKPSYQFGGHNSVDFEEDTLPKVSGQNEGQQTIEEDTTPPIVP | inhibited Fn binding to S. aureus in a dose-dependent manner
